# Experiments:
# Conditions in all cases: 72 h
# Caco-2 [1] = assay: cell viability relative to DMSO; higher = less toxic
# Calu-3 [2] = assay: as above
# HepG2 [3] = assay: as above
# U2OS [4] = assay: as above
# Vero E6 [5] = assay: as above
# Caco-2 [6] = assay: relative viability EC50 (midpoint between 100% and the lowest measured viability); higher = less toxic
# Calu-3 [7] = assay: as above
# HepG2 [8] = assay: as above
# U2OS [9] = assay: as above
# Vero E6 [10] = assay: as above
# Caco-2 [11] = assay: drug sensitivity score (DSS) for viability; higher = more toxic; extreme values may be limits of the assay
# Calu-3 [12] = assay: as above
# HepG2 [13] = assay: as above
# U2OS [14] = assay: as above
# Vero E6 [15] = assay: as above
Compound,cell viability (Caco-2 [1]; 1 nM) [%],cell viability (Caco-2 [1]; 10 nM) [%],cell viability (Caco-2 [1]; 100 nM) [%],cell viability (Caco-2 [1]; 1000 nM) [%],cell viability (Caco-2 [1]; 10000 nM) [%],cell viability (Calu-3 [2]; 1 nM) [%],cell viability (Calu-3 [2]; 10 nM) [%],cell viability (Calu-3 [2]; 100 nM) [%],cell viability (Calu-3 [2]; 1000 nM) [%],cell viability (Calu-3 [2]; 10000 nM) [%],cell viability (HepG2 [3]; 1 nM) [%],cell viability (HepG2 [3]; 10 nM) [%],cell viability (HepG2 [3]; 100 nM) [%],cell viability (HepG2 [3]; 1000 nM) [%],cell viability (HepG2 [3]; 10000 nM) [%],cell viability (U2OS [4]; 1 nM) [%],cell viability (U2OS [4]; 10 nM) [%],cell viability (U2OS [4]; 100 nM) [%],cell viability (U2OS [4]; 1000 nM) [%],cell viability (U2OS [4]; 10000 nM) [%],cell viability (Vero E6 [5]; 1 nM) [%],cell viability (Vero E6 [5]; 10 nM) [%],cell viability (Vero E6 [5]; 100 nM) [%],cell viability (Vero E6 [5]; 1000 nM) [%],cell viability (Vero E6 [5]; 10000 nM) [%],relative viability EC50 (Caco-2 [6]) [µM],relative viability EC50 (Calu-3 [7]) [µM],relative viability EC50 (HepG2 [8]) [µM],relative viability EC50 (U2OS [9]) [µM],relative viability EC50 (Vero E6 [10]) [µM],drug sensitivity score (Caco-2 [11]),drug sensitivity score (Calu-3 [12]),drug sensitivity score (HepG2 [13]),drug sensitivity score (U2OS [14]),drug sensitivity score (Vero E6 [15])
OCc1ccccc1O [salicyl-alcohol],101,97.3,111,107,102,95.5,109,108,94.2,96.9,104,98.2,85.7,105,94.2,103,95.4,101,94.4,98.6,98.8,104,95.5,105,110,> 10,> 10,> 10,> 10,> 10,0,0,0,0,0
CC(C)=CCC/C(C)=C/CC/C(C)=C/CSc1ccccc1C(=O)O [salirasib],93.4,97.8,98.9,96.3,92.6,104,99.6,101,103,99.2,98.5,98.7,93.9,98.5,94.8,102,97.3,98,96.6,97.9,95.8,103,97.2,97.4,97.3,> 10,> 10,> 10,> 10,> 10,0,0,0,0,0
O=C(Oc1ccccc1C(=O)O)c1ccccc1O [sasapyrine],106,95.3,90.3,82.8,81.9,87.8,108,100,100,93,93.1,86.4,100,91.7,105,100,98.6,101,97.2,94.9,110,99.9,102,88.3,89.8,> 10,> 10,> 10,> 10,> 10,2.6,0,0,0,0.4
CC(NC(=O)c1ccccc1/N=C/c1c(O)ccc2ccccc12)c1ccccc1 (stereo not given) [sirtinol],93.6,97.8,101,105,110,96.5,97.6,104,112,104,101,106,90.7,96.9,100,96.8,102,96.1,101,103,97.1,91.2,93,92.4,101,> 10,> 10,> 10,> 10,> 10,0,0,0,0,0
CCCCCCCCCCCCCCCCCC(=O)OC[C@@H](O)[C@H]1OC[C@H](O)[C@H]1O [sorbitan-monostearate],92.1,104,87.4,100,98.7,101,92.9,94.1,108,101,93.7,89.2,98.7,102,108,102,102,101,107,99.9,99.5,102,97.2,100,101,> 10,> 10,> 10,> 10,> 10,0,0,0,0,0
O=C1[C@@H]2[C@H]3CC[C@H](C3)[C@@H]2C(=O)N1CCCCN1CCN(c2ncccn2)CC1 [tandospirone],93.6,95.5,94.1,98.2,95.4,113,103,92,86.8,99.7,107,97,110,104,99.7,98.3,98.6,98.5,99.8,97.7,107,104,98.5,96.2,101,> 10,> 10,> 10,> 10,> 10,0,1.3,0,0,0
CCOC(=O)c1ccc(C#Cc2ccc3c(c2)C(C)(C)CCS3)nc1 [tazarotene],91.3,96.3,96.4,86,83.8,99.5,101,100,87.5,91.2,108,92.8,119,105,110,93.7,98,92.2,92.2,93.6,101,97.7,94.9,94.9,110,> 10,> 10,> 10,> 10,> 10,0.7,0.7,0,0,0
C[C@H](Cn1cnc2c(N)ncnc21)OCP(=O)(O)O [tenofovir],97.8,89.2,96.9,99.6,107,98.4,101,94.7,93.3,93.8,93.9,94.6,105,107,115,101,98.6,102,99.8,103,94.4,94.4,97.2,94.5,107,> 10,> 10,> 10,> 10,> 10,0,0,0,0,0
Cc1cc(OI)c(C(C)C)cc1-c1cc(C(C)C)c(OI)cc1C [thymol-iodide],104,102,103,97.7,87.9,91.2,97,102,101,105,99.5,105,92.8,99.1,93.7,101,103,103,98.2,99.6,104,102,99.7,99.5,97.7,> 10,> 10,> 10,> 10,> 10,0.2,0,0,0,0
CC(=O)c1ccc2c(c1)[C@H](NC(=O)c1ccc(F)c(Cl)c1)[C@H](O)C(C)(C)O2 [tonabersat],88.2,123,81.3,107,86.6,95.4,100,99,106,111,95,95.3,126,97.9,90.2,100,105,92.1,101,101,109,110,103,100,98.6,> 10,> 10,> 10,> 10,> 10,0,0,0,0,0
C(#CCN1CCCC1)CN1CCCC1 [tremorine],91.8,108,87.3,97.7,83.1,109,104,96.3,88.3,103,88.5,103,100,97.8,93.6,94.9,101,91.5,95.3,92.7,103,108,98.5,104,92,> 10,> 10,> 10,> 10,> 10,0.3,0,0,0,0
COc1cc(Cc2cnc(N)nc2N)cc(OC)c1OC [trimethoprim],114,113,119,103,90.1,103,89.6,107,110,113,82.4,102,106,89.8,97.6,92.3,98.4,96,99.6,105,99.8,91.4,100,94.4,96.4,> 10,> 10,> 10,> 10,> 10,0,0,0,0,0
CNCc1cc(-c2ccccc2F)n(S(=O)(=O)c2cccnc2)c1 [vonoprazan],97.5,100,102,100,96.4,99.8,96.7,94.9,96.6,105,101,93.6,100,94.3,107,95.4,100,98.1,102,94.4,103,99.4,97.9,99.7,98.9,> 10,> 10,> 10,> 10,> 10,0,0,0,0,0
COc1cc(-c2ccc(=O)[nH]n2)ccc1OC(F)F [zardaverine],87.1,90,96.9,96.3,104,108,95.9,89.5,92.4,89.4,93.8,110,95.7,106,99.7,97.8,95.8,103,98,99.2,95.5,101,94.5,93,92.6,> 10,> 10,> 10,> 10,> 10,0,0.3,0,0,0

# — the supplement of paper PMC13380429
